Results reported in the supplement of paper PMC8837787.

Tested on: Saccharomyces cerevisiae ABC16-Green Monster
Assay: growth inhibition at single dose (up to 150 µM), below the 70% cut-off for dose-response; higher = more potent
Details: 18 h; 30 °C; YPD
How it was run: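 Percent growth inhibition is the reported value. Drug-sensitive S. cerevisiae ABC16-Green Monster cultures in log phase (OD600 0.1–0.2), 200 µl per well in 96-well plates, received each library compound once at 150 µM in biological duplicates, with untreated cultures run alongside. Growth was followed by OD600 at 0 h and after 18 h at 30 °C. Dose-response was not done for compounds below 70% in both replicates.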

| Structure (SMILES) | growth inhibition at single dose [%] |
| --- | --- |
| CC(C(=O)N1CCCC1)N1CCN(S(=O)(=O)c2ccc(C(C)(C)C)cc2)CC1 (configuration not stated) | < 70 |
| CCN(CC)CCNc1ccnc2cc3ccccc3cc12 | < 70 |
| COc1cccc(C=Cc2nc(=O)c3ccccc3o2)c1OC | < 70 |
| Cc1cc(C(=O)COC(=O)c2ccccc2C(F)(F)F)c(C)n1Cc1ccccc1Cl | < 70 |
| O=C(Nc1ccc(I)cc1)C1CCN(C(=O)c2ccncc2)CC1 | < 70 |
| CCOC(=O)c1cnc2c(CC)cccc2c1O | < 70 |
| O=S(=O)(NC1CCN(c2nn3cc(-c4ccccc4)nc3s2)CC1)c1cccs1 | < 70 |
| COc1cccc(O)c1CN1CCC2(CCCN(Cc3ccc(F)cc3)C2)C1 (configuration not stated) | < 70 |
| O=C(Nc1ccc(Oc2cc(C(F)(F)F)cc(C(F)(F)F)c2)cc1)Nc1ccc(OC(F)(F)F)cc1 | < 70 |
| O=C(NCCN1CCCC1)c1cc(NCCN2CCOCC2)nc2ccc(Cl)cc12 | < 70 |
| CCOC(=O)c1[nH]c(C)c(C(=O)OCC(=O)Nc2ccc(Cl)cn2)c1C | < 70 |
| O=C(NC1CCN(Cc2ccccc2)CC1)c1cc(-c2cccnc2)nc2ccc(Cl)cc12 | < 70 |
| CC(=O)c1c(C)[nH]c(C(=O)OCCOc2ccccc2)c1C | < 70 |
| CN1c2ccccc2N(C)C1c1ccc2c(c1)OCO2 | < 70 |
| CCCCN1C(=O)C(=O)N(CC(=O)Nc2sc(Cc3ccc4c(c3)OCO4)c(C)c2C(=O)OCC)C1=O | < 70 |
| Cc1ccc(S(=O)(=O)/N=C2\C=C3N(CCO)CCOC3(O)c3ccccc32)c(C)c1 (configuration not stated) | < 70 |
| Oc1c(I)cc(I)c2cccnc12 | < 70 |
| COc1ccc(S(=O)(=O)N(Cc2ccc(C(=O)NC3CC3)cc2)C2CC2)cc1OC | < 70 |
| Cc1cc(C(=O)Cn2nnc3ccccc3c2=O)c(C)n1-c1ccccc1 | < 70 |
| O=C(COc1ccc2[nH]c3ccccc3c(=O)c2c1)Nc1ccccc1Cc1ccccc1 | < 70 |
| COC(=O)[C@@H](NC(=O)Nc1ccc(-c2nc3ccccc3s2)cc1)C(C)C | < 70 |
| O=C(Cn1nnc2ccccc2c1=O)c1ccc(C2CCCCC2)cc1 | < 70 |
| CC(=O)Nc1ccc(-c2noc(CC3CCCN(Cc4cccc(F)c4C)C3)n2)cc1 (configuration not stated) | < 70 |

| Structure (SMILES) | growth inhibition at single dose [%] |
| --- | --- |
| O=C(C1CCCCC1)N1CC(=O)N2CCc3ccccc3C2C1 (configuration not stated) | < 70 |
| COc1ccc(N(CCc2cccc(C)n2)C(=O)C2CCCCC2)cc1 | < 70 |
| O=C(NC1CC1)c1ccc(N2CCC(Cc3ccccc3)CC2)nc1 | < 70 |
| CCc1ccccc1-n1c(C)cn2c3c(=O)n(C(C(=O)OC)C(C)C)c(=O)n(C)c3nc12 (configuration not stated) | < 70 |
| Cc1ccc(OCCCCCCNCCO)c(C)c1 | < 70 |
| Oc1ccccc1CNCC12CC3CC(CC(C3)C1)C2 | < 70 |
| Cc1cc(OCC(=O)Nc2ccc(C(C)C)cc2)n(C)c(=O)c1C#N | < 70 |
| Nc1nccnc1C(=O)Nc1ccc(C23CC4CC(CC(C4)C2)C3)cc1 | < 70 |
| Cc1ccc(C(=O)OC(C)C(=O)N2CCCC2)cc1S(=O)(=O)N1CCCCC1 (configuration not stated) | < 70 |
| CNc1nnc(Sc2cnn(-c3ccccc3)c(=O)c2Cl)s1 | < 70 |
| CC1CCN(Cc2c(O)ccc3cc(-c4nc5ccccc5s4)c(=O)oc23)CC1 | < 70 |
| Cc1ccccc1-n1nnc(C(=O)Nc2cccc(Br)c2)c1N | < 70 |
| CN(Cc1ccc(C(N)=O)cc1)c1ncnc2ccccc12 | < 70 |
| CN(C)CC(C)(C)CNc1nn2cc(-c3ccccc3)nc2s1 | < 70 |
| N#Cc1ccsc1NC(=O)CN1CCN(CC(=O)Nc2ccc(Cl)c(C(F)(F)F)c2)CC1 | < 70 |
| CCOc1cc2c(cc1OCC)C(c1cc(Cl)c(O)c(OCC)c1)NCC2 (configuration not stated) | < 70 |
| CC(C)(C(=O)Nc1ccc(F)cc1)n1cc(-c2ccccc2F)cn1 | < 70 |
| Cc1cc(NCC(C)C)c2n[nH]c(-c3ccccc3)c2n1 | < 70 |
| CCOC(=O)c1sc2ncn(-n3c(C)ccc3C)c(=O)c2c1C | < 70 |
| CC(C)(C)CC(C)(C)NCC(O)COc1ccc2c(c1)CCC2 (configuration not stated) | < 70 |
| COC(=O)c1ccc(F)cc1NS(=O)(=O)c1cccc(-c2cnn(Cc3ccccc3)c2)c1 | < 70 |
| Cc1cc(NC(=O)c2ccc(Oc3ccc(Cl)cc3O)o2)no1 | < 70 |
| O=C(Nc1cnc2ccccc2c1)c1cccc(NC(=O)c2cccs2)c1 | < 70 |

| Structure (SMILES) | growth inhibition at single dose [%] |
| --- | --- |
| Cc1ccc(C)c(-c2csc(Nc3ccc(C)c(C)c3)n2)c1 | < 70 |
| Cc1cc(C(=O)Nc2cnn(Cc3ccc(Cl)cc3Cl)c2)no1 | < 70 |
| CCn1c2ccccc2c2cc(NC(C)C(=O)N3CCNC3=O)ccc21 (configuration not stated) | < 70 |
| CC(=O)NCC1CN(c2ccc(-c3ccc(CO)cc3)c(F)c2)C(=O)O1 (configuration not stated) | < 70 |
| N#Cc1ccc(NC(=O)Nc2ccc(C#N)cc2)cc1 | < 70 |
| Cc1cccc2c(=O)n(CC(=O)NCc3ccc(C(=O)N4CCCCC4)cc3)cnc12 | < 70 |
| CCOc1ccc(-c2nc(C(=O)Nc3ncccc3O)cs2)cc1 | < 70 |
| CCc1ccc([C@@H]2C[C@H](C(F)(F)F)n3ncc(C(=O)NCc4ccc(OC)cc4)c3N2)cc1 | < 70 |
| COc1cccc(NC(=O)Cn2c(C)c(C#N)c3ccccc32)c1 | < 70 |
| CCOC(=O)c1cn(CC)c2cc(N(C)CCc3ccc(OC)c(OC)c3)c(F)cc2c1=O | < 70 |
| CN(C)CCNC(=O)N1CCCN(c2ncnc3cc(-c4ccccc4)sc23)CC1 | < 70 |
| O=C(Nc1nc(CN2CCOCC2)cs1)c1ccc(-c2ccccc2)cc1 | < 70 |
| Oc1c(CN2CCN(c3ccccc3F)CC2)cc(Br)c2cccnc12 | < 70 |
| O=C(CN1C(=O)CCOc2ccccc21)N1CCN(C(=O)C2COc3ccccc3O2)CC1 (configuration not stated) | < 70 |
| CCNC(=O)c1nn(CC2CC2)c2c1CN(C(=O)c1cc(-c3ccccc3F)n[nH]1)CC2 | < 70 |
| Cc1ccc(C)c(S(=O)(=O)N2CCN(C(=O)c3[nH]nc4ccccc34)CC2)c1 | < 70 |
| CN(C)c1ccc(N2C(N)=NC(N)=NC2(C)C)cc1 | < 70 |
| CCCc1cc(NCCN(C)C)n2ncc(-c3ccccc3)c2n1 | < 70 |
| O=C(NCCN1CCCC1)c1cc(NCCCCN2CCC(F)(F)CC2)nc2ccc(Cl)cc12 | < 70 |
| O=C(NC1CCN(c2ccnc3ccccc23)C1)c1cccc(C(F)(F)F)c1 (configuration not stated) | < 70 |
| CC(C)n1nc(-c2cc3c(Cl)cccc3[nH]2)c2c(N)ncnc21 | < 70 |
| Cc1ccc2c(c1)nc1n2CN(CCN2CCOCC2)CN1Cc1ccccc1 | < 70 |
| COc1ccc(/C=C2\N=C(SCC(=O)O)N(Cc3ccccc3)C2=O)cc1 | < 70 |

| Structure (SMILES) | growth inhibition at single dose [%] |
| --- | --- |
| COc1ccc(S(=O)(=O)N(Cc2cccs2)c2ccc3c(c2)OCCO3)cc1NC(C)=O | < 70 |
| COc1ccccc1N1C(=N)SC(=Cc2ccc(OCc3ccccc3F)cc2)C1=O | < 70 |
| CC(O)(c1ccc(Cl)cc1)C(CN1CCCCC1)c1ccccc1 (configuration not stated) | < 70 |
| O=S(=O)(c1ccc(Cl)c(N=C2NN=C(c3c[nH]c4ccccc34)CS2)c1)N1CCOCC1 | < 70 |
| CC(NC(C)c1ccc(Cl)cc1)C(=O)Nc1sccc1C(N)=O (configuration not stated) | < 70 |
| Nc1nnc(SCc2c(F)cccc2Cl)[nH]1 | < 70 |
| CCc1ccc(/C=C/c2ccc3cccc(O)c3n2)cc1 | < 70 |
| CCOC(=O)c1c[nH]c2c(F)cc(F)cc2c1=O | < 70 |
| CCCOc1ccc(C(F)(F)F)cc1NC(=O)c1nc2nccc(C)n2n1 | < 70 |
| O=C(NC1CC1)c1ccc(CSCc2ccccc2Cl)o1 | < 70 |
| O=C(Nc1ncc(Cc2ccc(Br)cc2)s1)c1ccc2n[nH]nc2c1 | < 70 |
| Cc1c(C)c(C)c(S(=O)(=O)N2CCN(C(C)C(=O)NC3CC3)CC2)c(C)c1C (configuration not stated) | < 70 |
| COc1ccc(-c2cnc3cnc(-c4cccc(OC(C)C)c4)cn23)cc1 | < 70 |
| CCOC(=O)c1ccc(Oc2nc3ccccc3nc2C(C#N)C(=O)OC)cc1 (configuration not stated) | < 70 |
| Cn1c(Oc2cccc3c2OC(C)(C)C3)c(C#N)c(=O)n(C)c1=O | < 70 |
| Cc1nn(-c2ccccc2)c(Oc2ccccc2)c1/C=C1\C(=O)Nc2ccccc21 | < 70 |
| COc1ccc(Br)cc1C1Nc2ccc3ccccc3c2C2=C1C(=O)CC(c1ccccc1)C2 (configuration not stated) | < 70 |
| Cc1c(C)n(CCCO)c2ncn3nc(-c4ccc(N(C)C)cc4)nc3c12 | < 70 |
| O=C(NC1CCN(Cc2ccccc2)CC1)c1cc2nc(-c3ccc(Cl)s3)cc(C(F)(F)F)n2n1 | < 70 |
| CCc1nc2ccccc2n1CC(O)COc1cc(C)ccc1Cl (configuration not stated) | < 70 |
| N=c1c2ccccc2nnn1-c1cccc(C(F)(F)F)c1 | < 70 |
| CCCc1ccc(S(=O)(=O)Nc2ccc(CN3CCN(CC4CC4)CC3)cc2)cc1 | < 70 |
| COc1cc(-c2nc(-c3ccccc3)c(-c3ccccc3)[nH]2)cc(OC)c1O | < 70 |
